Data on one substance can be found in patent US5385884A, “Lipopeptide derivatives” (Merck & Co. Inc., priority 1991, dated 1995).

For one test, the system named is Pneumocystis carinii. The experiment in a line: Pneumocystis carinii pneumonia in immunosuppressed rats. Particulars: intraperitoneally (I.P.) twice daily for four days. The test is classed as in vivo, Sprague-Dawley rats. The protocol:
In a representative study, the effectiveness of Compound A-la was determined. Sprague-Dawley rats (weighing approximately 250 grams) were immunosuppressed with dexasone in the drinking water (2.0 mg/L) and maintained on a low protein diet for five weeks to induce the development of pneumocystis pneumonia from a latent infection. […] Six rats (weighing approximately 150 grams) were injected twice daily for four days intravenously (I.V.) via the tail vein with Compound A-la in 0.25 ml of vehicle (distilled water). A vehicle control was also carried out. All animals continued to receive dexasone in the drinking water and low protein diet during the treatment period. At the completion of the treatment, all animals were sacrificed, the lungs were removed and processed, and the extent of disease determined by microscopic analysis of stained slides.
In a similar experiment, except that the rats were injected intraperitoneally (I.P.) twice daily for four days, the animals were sacrificed, the lungs removed and processed, and the extent of disease determined by microscopic analysis of stained slides.

The next test relates to C. albicans. In words: Minimum fungicidal concentration, microbroth dilution assay in YNBD. The test is classed as cell-based. The protocol: The minimum inhibitory concentrations (MICs) were recorded as the lowest concentrations of drug showing no visible growth.
After recording the MIC, the plates were shaken to resuspend the cells. […] The MFC is defined as the lowest concentration of drug showing no growth or less than 4 colonies per spot.
A general note: Broth dilution looks for growth in wells or tubes with falling amounts of substance.

In the case of “1-[4-hydroxy-N2-(10,12-dimethyl-1-oxotetradecyl)-ornithine]-4-[3-hydroxy-4' -O-phosphoryl-homotyrosine]-5-[3-hydroxyglutamine]-6-[3-hydroxyproline]echi nocandin B disodium salt [Compound A-2a]”, in the test with Pneumocystis carinii, the “ED90 for eliminating P. carinii cysts” value is listed as “approximately 0.6 mg/kg”. The “Minimum Fungicidal Concentration” value in the test with C. albicans (C. albicans MY 1028) and in the test on C. albicans (C. albicans MY 1208) was 2 µg/mL each time.
